# Assay results as given in patent publication US6610716B2, “Cyanomethyl substituted thiazoliums and imidazoliums and treatments of disorders associated with protein aging” (Alteon Incorporated, priority 2000, dated 2003).
# Counter-ions that a name gives are not always drawn.
# Assays:
# [1] = tested on: red blood cells; details: in vivo; cited from earlier work
# [2] = in vivo; cited from earlier work
# [3] = streptozotocin-diabetic rat model; cited from earlier work
# [4] = diabetic rats; cited from earlier work
# [5] = Phase Ia clinical trial; type: in vivo, human
# Source text: When the heart pumps blood into the vascular system, the ability of the arteries to expand helps to push blood through the body. When arteries become stiff, as they do in the natural process of aging. the ability of the arteries to expand is diminished and also has consequences for the heart. The heart has to work harder to pump the blood into the stiff arteries, and eventually hypertrophies (enlarges in size) to accomplish this. A hypertrophied heart is an inefficient pump, and is one of the disorders that leads to congestive heart failure. […] The potential clinical benefit of this is to lessen the effort that the heart must expend to push blood throughout the body. The effect is also believed to contribute to preventing hypertrophy and subsequent inefficiency of the heart, which inefficiency would contribute to congestive heart failure.
# Atherosclerosis is a disease that involves deposition of blood lipids in plaque in the arteries throughout the body. In coronary arteries, accumulation of plaque progressively leads to reduced coronary flow, with occlusion of the arteries causing focal death of cardiac tissue (myocardial infarction, heart attack). If the amount of tissue that dies is large enough, death ensures. In a Phase Ia trial, one compound believed to work by a mechanism shared by the compounds of the invention, 3-[2-phenyl-2-oxoethyl]-4,5-dimethyl-thiazolium salt, […] the amount of circulating triglycerides (lipids). […] Reducing local deposits of plaque should eventually lessen the risk of myocardial infarction and death due to heart attacks.
# Pulse pressure is the difference between systolic and diastolic blood pressure. In a young human, systolic pressure is typically 120 mm Hg and diastolic pressure is 80 mm Hg, resulting in a pulse pressure of 40 mm Hg. With age, in many individuals pulse pressure increases, largely due to the increase in systolic pressure that results from stiff vessel disease. In individuals with pulse pressure greater than 60 mm Hg there is an increased risk of death from cardiovascular morbidities.
# [6] = In vivo studies of vascular stiffening and cardiovascular collagen; design: species or system rodents, canines and primates
# Source text: (§1) Cardiovascular risk correlates more closely with the systolic and the pulse pressure than with the diastolic pressure. In diabetic patients, the cardiovascular risk profile of diabetic patients is strongly correlated to duration of diabetes, glycemic control and blood pressure. Structural matrix proteins contribute to the function of vessels and the heart, and changes in the physical behavior of cardiovascular walls are believed to be important determinants of circulatory function. In elderly individuals, the loss of compliance in the aorta leads to isolated systolic hypertension, which in turn expands the arterial wall and thereby diminishes the dynamic range of elasticity. […] Treatment with 3-[2-phenyl-2-oxoethyl]-4,5-dimethyl-thiazolium salt lead to a reduction in the mass of collagen in cardiovascular tissues.
# [7] = Dog model for diabetes, indicators of ventricular elasticity; type: in vivo
# Source text: as §1
# [8] = tested on: TGFbeta; experiment: In situ hybridization studies; type: in vivo
# Source text: as §1
# [9] = tested on: Type IV collagen; experiment: In situ hybridization studies; type: in vivo
# Source text: as §1
# [10] = use of chlorhexidine; cited from earlier work
smiles,measurement,setting,value
Cc1sc[n+](CC#N)c1C.[Br-],melting point,,184 to 186 °C (dec.)
N=C(N)NN [aminoguanidine],diabetes-induced changes in the deformability of red blood cells,[1],"prevent, treat or reverse such changes"
same,immunoglobulin trapping in the kidney,[2],reduction
same,increased glomerular basement membrane thickness,[3],prevented
same,aortic wall protein cross-linking,[4],diminishes
"Cc1sc[n+](CC(=O)c2ccccc2)c1C [3-[2-phenyl-2-oxoethyl]-4,5-dimethyl-thiazolium salt]","stiffness of arteries, as measured by the ratio of stroke volume (ml) to pulse pressure (mm Hg)",[5]; Phase Ia clinical trial,reverse the stiffness of arteries
same,amount of circulating triglycerides (lipids),[5]; Phase Ia trial,increased
same,systolic blood pressure,"[5]; Phase Ia trial, believed primary cause of the pulse pressure decrease",lowering the systolic blood pressure
same,pulse pressure,"[5]; Phase Ia trial, elderly patients with pulse pressures greater than 60 mm Hg, statistically significant",reduced pulse pressure
same,mass of collagen in cardiovascular tissues,[6]; in vivo,reduction
same,vascular stiffening,"[6]; in vivo studies in rodents, canines and primates",substantially ameliorating vascular stiffening
same,end diastolic pressure,[7],returned to a value at about the mid-point between the disease impaired value and the value for control dogs
same,end diastolic volume,[7],returned to a value at about the mid-point between the disease impaired value and the value for control dogs
same,expression of TGFbeta,[8],reduces the expression
same,expression of Type IV collagen,[9],reduces the expression
[H]/N=C(\N/C(=N/[H])NCCCCCCNC(=N)NC(=N)Nc1ccc(Cl)cc1)Nc1ccc(Cl)cc1 [chlorhexidine],dental pellicle,[10],increased dental pellicle
N#CC[n+]1csc2c1CCCC2.[Br-],melting point,,215 to 217 °C (dec.)
